*: point of attachment. Cbz = O=C(OCc1ccccc1)*; CH2F = FC*
Tests used:
[1] = tested on: Bbs12 depleted retinal explants (photoreceptor apoptosis, ONL); experiment: TUNEL assay, apoptotic rate of photoreceptors in shRNA-treated retinal explants; type: cell-based, mouse; conditions: for apoptotic rate (proportion of apoptotic photoreceptor nucleus): shBbs12 explants, single treatments 2 mM VPA, 25 μM GBZ, 10 μM INH, 33% without treatment
Protocol: (§1) Wild-type animals were on a C57BL/6 background. The retinal explant culture procedure was carried out as previously described (Reidel et al., 2006). Briefly, 15-day-old mice were sacrificed by decapitation and eyes were removed and incubated in trypsin (catalog #25200-072, Gibco, Invitrogen, Paris, France) for 10 min at 37° C. Digestion was stopped by transferring eyes in DMEM+10% fetal bovine serum (catalog #31885-023 and 10500-064, Gibco) and incubation for 10 min at 4° C. Eyes were dissected in Ame's medium (catalog#15230-097, Gibco) supplemented with 6.5 g/L glucose. First, the sclera was carefully removed, leaving the retinal pigmented epithelium (RPE) attached to the eyeball. Incisions were made at the edge of the cornea to remove the cornea, lens and hyaloid body. Then four radial incisions were made in the retina to obtain a cross shape. Retinas were transferred on a nitrocellulose culture membrane (catalog # PICMORG50, Millipore, Molsheim, France) with RPE side down and cultivated in Neurobasal A medium (catalog #108888-022, Gibco) supplemented with B27 supplement (catalog #17504-044, Gibco), L-glutamine (catalog #35050-061, Gibco) and penicillin/streptomycin (catalog #15240; Gibco). Explants were maintained at 37° C. humidified 5% CO2. Specific gene silencing using lentiviruses carrying shRNA sequences for Bbs12, Perk, Hri or Rhodopsin (Santa Cruz Biotechnology, Tebu Bio, Yvelines, France) were performed by adding 20 μl of viral suspension (1×10^5 infectious units) in the culture medium overnight before whole medium change. The infected explants were then cultured for 3 days with a half medium change on a daily basis. Explants were not maintained longer in culture to avoid unspecific apoptosis in the different retinal layers. […] Drugs were added simultaneously with viral infection to the culture medium.
For immunofluorescence experiments and TUNEL assay retinal explants were fixed directly on membranes with Formalin 10% for 1 hour at 4° C. Sucrose impregnation was then performed using 10%, 20% and 30% sucrose baths, 20 min each. Explants were transferred to OCT (catalog #4583, Tissue-Tek, Sakura, Villeneuve d′Ascq, France) in mold and frozen in liquid nitrogen. 8 μm thin cryosections were mounted on StarFrost slides (catalog # VS1117, Waldemar Knittel Glasbearbeitungs, Braunschweig, Germany).
Sections or cells were washed with PBS 1× and shortly fixated with Formalin 10% solution for 5 minutes and washed three times with PBS 1×. […] The prevalence of apoptotic nuclei was expressed as the ratio of TUNEL-positive nuclei and DAPI-stained nuclei in three different areas of the ONL per experiment. […]

[2] = tested on: Bip, Chop10 and Caspase12 mRNA; experiment: mRNA expression of ER stress genes in retinal explants (quantitative PCR); type: cell-based, mouse
Protocol: as §1
Total RNA was extracted with Trizol (catalog #15596-018, Invitrogen). […] was DNAse treated using TURBO DNA-free Kit (catalog # AM1907, Applied Biosystems, Villebon-sur-Yvette, France) and then reverse transcribed using the iScript cDNA synthesis kit (catalog #170-8891, BioRad, Marne-la-coquette, France). Primers (listed in supplementary methods) were purchased from Qiagen, Courtaboeuf, France. Quantitative PCR were performed using SYBR Green PCR Mix (catalog #4367659, Applied Biosystems) on a BioRad CFX96 system. mRNA expressions were expressed as relative to Gapdh RNA content, using BioRad CFX manager software. For endoplasmic reticulum stress arrays, Custom TaqMan Array 96 was purchased for Applied Biosystems; all tested genes are listed in supplementary methods.

[3] = tested on: peIF2α, CHOP10 and BiP; experiment: Western blot of UPR proteins in retinal explants; type: cell-based, mouse; conditions: shRNA-treated retinal explants
Protocol: as §1
Proteins were obtained by lysis in RIPA buffer (150 mM NaCl, 50 mM TrisHCl pH 8, 0.1% Tween20, catalog # P7653, T3253, 93773, Sigma-Aldrich) supplemented with Protease Inhibitors Complete Mini EDTA-free (catalog #11836 170001, Roche, Boullogne-Billancourt, France), 1 mM NaVO4 and 25 mM NaF (catalog # S6508 and S7920, Sigma-Aldrich). After retina dissociation using dounce homogenizer, samples were sonicated and protein concentration was determined using Bradford reagent (catalog #500-0006, BioRad). For Western blotting, 80 μg of whole protein extracts were loaded per lane and Ponceau S staining was used as loading control for signal quantification. Antibody binding was visualized using SuperSignal West Femto Maximum Sensitivity Substrate (catalog #34095, ThermoFisher) on a Versadoc apparitus, BioRad. Signal quantification was assed using QuantityOne software from BioRad.

[4] = tested on: Bbs12−/− mouse retina; experiment: Scotopic electroretinogram of treated Bbs12−/− mice; type: in vivo; conditions: 4 weeks of age; for scotopic ERG recording: systemic VPA 5 mg/mL, systemic GBZ 50 μM, or GIV (eye drops GBZ 7.5 μM + INH 500 μM, systemic VPA)
Protocol: (§2) The Bbs12^−/− mice were generated as previously described. Bbs12^−/− mice were obtained by crossing heterozygote animals. Mice were housed in humidity and temperature controlled rooms on a 12-hour light/12-hour dark cycle with food ad libitum and water. For anti-apoptotic treatments, animals were treated with eye drops from 2 to 4 weeks of age once a day; the eye drops contain GBZ 7.5 μM and Caspase Inhibitor 500 μM for the left eye and contain 5% DMSO for the right eye. […] Eye drop treatment was achieved from 2 to 4 weeks of age and systemic treatments were achieved from 3 to 4 weeks of age. At 4 weeks of age, electrophysiological analyses were performed and the retinas were harvested for molecular analysis.
Mice were dark adapted for 12 hours before recording. Those experiments were performed under dim red light. The mice were anesthetized with the same anesthesia mix described in the section above. The pupils were dilated with eye drops of atropine 0.3% (catalog # Atropine Alcon 0.3%, Alcon, Rueil-Malmaison, France). Animals were placed on a controlled heating pad and maintained at 37° C. during the procedure. The reference electrode was placed under the head skin and the background electrode was inserted in the tail of the animal. The measuring electrode was placed on the cornea, to optimize contact between the cornea and the gold electrode, and a drop of methylcellulose gel (catalog # Ocry-gel, TVM Laboratories, Lempdes, France) was added. Flashes were delivered though a Ganzfeld equipped with light-emitting diodes with maximum output of 318 cd/m^2 (Siem Biomédicale, Nimes, France). For the scotopic ERG, the flash duration varied from 3 to 5 ms with final flash output ranging from 0.001 to 1 cd*s/m^2. Responses were amplified, filtered (1-300-Hz band pass), and digitized (Visiosystem; Siem Biomédicale). The a and b waves were measured by using a 1-75-Hz band pass to filter oscillatory potentials.

[5] = tested on: Bbs12−/− mouse retina; experiment: Retinal histology (ONL thickness, cilia) of treated Bbs12−/− mice; type: in vivo; conditions: for ONL layer thickness: 4 weeks of age, 37 μm for untreated retinas
Protocol: The Bbs12^−/− mice were generated as previously described. Bbs12^−/− mice were obtained by crossing heterozygote animals. Mice were housed in humidity and temperature controlled rooms on a 12-hour light/12-hour dark cycle with food ad libitum and water. For anti-apoptotic treatments, animals were treated with eye drops from 2 to 4 weeks of age once a day; the eye drops contain GBZ 7.5 μM and Caspase Inhibitor 500 μM for the left eye and contain 5% DMSO for the right eye. […] Eye drop treatment was achieved from 2 to 4 weeks of age and systemic treatments were achieved from 3 to 4 weeks of age. At 4 weeks of age, electrophysiological analyses were performed and the retinas were harvested for molecular analysis. Sections or cells were washed with PBS 1× and shortly fixated with Formalin 10% solution for 5 minutes and washed three times with PBS 1×. The sections were then pre-incubated with Teng-T (10 mM TrisHCl (pH=7.6), 5 mM EDTA (catalog # E5768, Sigma-Aldrich), 150 mM NaCl, 0.25% gelatin (catalog # G9391, Sigma-Aldrich), 0.05% Tween-20)/10% normal goat serum (catalog #PCN5000, Gibco) for 30 min, followed by an overnight incubation with the primary antibody diluted in Teng-T/10% NGS at 4° C. Slides were then washed with PBS 1× and incubated with the indicated secondary antibody in Teng-T/10% NGS for 1 hour at room temperature. Slides were washed in PBS 1× and nuclear staining was performed with DAPI (catalog # D1306, Invitrogen). Slides were mounted with Immumount (catalog #9990402, ThermoFisher). TUNEL assays were performed using In Situ Cell Death Detection Kit (catalog #11684795910, Roche) according to suppliers' protocol. The prevalence of apoptotic nuclei was expressed as the ratio of TUNEL-positive nuclei and DAPI-stained nuclei in three different areas of the ONL per experiment. All results shown are representative of at least 3 separate experiments.

[6] = tested on: eIF2α phosphorylation and BiP; experiment: Western blot of phosphorylated eIF2α and BiP in retinas of treated Bbs12−/− mice; type: in vivo, mouse
Protocol: as §2, with “Bbs12^-/-” for “Bbs12^−/−”, “analysis. […] After retina dissociation using dounce homogenizer, samples were sonicated and protein concentration was determined using Bradford reagent (catalog #500-0006, BioRad). For Western blotting, 80 μg of whole protein extracts were loaded per lane and Ponceau S staining was used as loading control for signal quantification. […] Signal quantification was assed using QuantityOne software from BioRad.” for “analysis.”

[7] = tested on: Bbs1M390R/M390R mice; conditions: cited from earlier work
[8] = tested on: rat retina; conditions: ischemia-reperfusion injury, systemic administration; cited from earlier work
[9] = tested on: RP patients; conditions: RP patients treated for 2 or 4 months; cited from earlier work
[10] = control conditions (shCtl explants)

a wave amplitude, scotopic ERG [4] | b wave amplitude, scotopic ERG [4] | scotopic ERG recording [4] | Compound | apoptotic rate (proportion of apoptotic photoreceptor nucleus) [1] [%] | Bip mRNA expression ([2]; after Bbs12 depletion) | Caspase12 mRNA expression ([2]; after Bbs12 depletion) | Chop10 mRNA expression ([2]; after Bbs12 depletion) | CHOP10 protein content [3] | eIF2α phosphorylation (peIF2α), protein level [3] | protective effect on photoreceptors, overall in vivo (electrophysiological and histological analysis) [5] | ONL layer thickness [5] [μm] | other results
significantly increased | significantly increased | clear amelioration | N=C(N)N/N=C/c1c(Cl)cccc1Cl [GBZ, guanabenz] | 12 | decreased | decreased | decreased | increase | maintained in a phosphorylated status | efficient to reduce photoreceptor apoptosis | 45 | phosphorylated status of eIF2α [6]: increased
 |  |  | Z-Ala-Thr-Ala-Asp(O-methyl)-fluoromethyl-ketone (Cbz-ATAD(OMe)-CH2F; SMILES COC(=O)C[C@H](NC(=O)[C@H](C)NC(=O)[C@@H](NC(=O)[C@H](C)NC(=O)OCc1ccccc1)[C@@H](C)O)C(=O)CF) [INH, Promokine] | 23 |  |  |  | decrease | decrease |  |  | 
 |  |  | C[C@H](CCC(=O)NCCS(=O)(=O)O)[C@H]1CC[C@H]2[C@@H]3[C@@H](O)C[C@@H]4C[C@H](O)CC[C@]4(C)[C@H]3CC[C@]12C [TUDCA, tauroursodeoxycholic acid] |  |  |  |  |  |  |  |  | retinal thickness [7]: induced retinal thickening
significantly increased | higher | clear amelioration | CCCC(CCC)C(=O)O [VPA, valproic acid] | 17 | lower | lower | lower | decreased | decreased | efficient to reduce photoreceptor apoptosis | 44 | apoptotic rate ([1]; shCtl explants, 2 mM VPA, TUNEL-positive nuclei/DAPI in ONL): 13%; Bip mRNA expression [2, 10]: twofold increase; Caspase12 mRNA expression [2, 10]: not significantly changed; Chop10 mRNA expression [2, 10]: not significantly changed; BiP protein content [3]: increased; BiP protein level [6]: increased; BiP expression [8]: increased; caspase-12 activation [8]: reduced; visual field [9]: increase of visual field in 5 to 7 patients
